# Measurements from patent US9766241B2, “PGC-1beta-protein-function regulator, mitochondria-function regulator, anti-obesity agent, and screening method therefor” (priority 2012, dated 2017).
# Where a SMILES comes first, the peptide text is derived from it. The star is where a group is joined. Cbz = O=C(OCc1ccccc1)*
# Experiments:
# [1] = tested on: mitochondria in adipose tissue cells; assay: mitochondria in adipose tissue of mice given LS-102 (electron micrographs); format: in vivo, C57BL/6J mice; details: 50 mg/kg body weight per day intraperitoneally, fifty seventh day, vs DMSO, FIG. 18
# Description: 50 mg/kg body weight of LS-102 per day or solvent (DMSO) as a control was administered intraperitoneally to 7 to 8-week-old C57BL/6J mice to observe adipose tissue slices of the mice of fifty seventh day after the administration using a microscope. […] Magnifications of the electron microscope were 2,500 folds and 10,000 folds and the white bars indicate scale bars (2 μm in the 2,500 folds and 500 nm in the 10,000 folds).
# PGC-1β [2] = assay: PGC-1β protein and mRNA level in treated HEK 293 cells; format: cell-based
# Description: Firstly, synoviolin knock down was performed by siRNA in HEK 293 cells. Synoviolin siRNA was prepared in accordance with already reported article (see, Yamasaki, S., et al. (2007). Cytoplasmic destruction of p53 by the endoplasmic reticulum-resident ubiquitin ligase ‘Synoviolin’. EMBO J 26, 113-122.). Transfection of siRNA into cells was performed in accordance with a protocol with Lipofectamine 2000 (Invitrogen, Corporation).
# When a protein level of the PGC-1β was investigated as a confirmation, the protein level of the PGC-1β was doubled in LS-102 treated cells. On the other hand, the expression of PGC-1β mRNA was not changed by the LS-102 treatment.
# [3] = molecular target: T1, binding between synoviolin and PGC-1β (Homo sapiens, UniProt Q86TM6, E545G); assay: in vitro binding assay between synoviolin and PGC-1β (Western blot)
# T1 construct: GST fusion synoviolin which lack transmembrane domain (GST syno ΔTM); made in house
# T1 sequence (Q86TM6 236-617 E545G): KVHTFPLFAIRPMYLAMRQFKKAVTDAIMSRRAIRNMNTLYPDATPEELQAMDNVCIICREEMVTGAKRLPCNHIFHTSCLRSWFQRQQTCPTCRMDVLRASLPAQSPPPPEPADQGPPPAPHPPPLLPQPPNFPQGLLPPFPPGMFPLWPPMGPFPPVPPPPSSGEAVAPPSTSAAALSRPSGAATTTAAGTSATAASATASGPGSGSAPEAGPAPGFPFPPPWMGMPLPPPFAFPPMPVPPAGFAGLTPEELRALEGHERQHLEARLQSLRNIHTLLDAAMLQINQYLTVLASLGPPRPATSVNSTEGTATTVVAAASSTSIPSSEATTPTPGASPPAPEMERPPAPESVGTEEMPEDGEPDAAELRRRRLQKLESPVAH
# Description: In order to investigate an influence on PGC-1β functions by inhibitor of E3 ubiquitin ligase activity of synoviolin, an effect on inhibition of binding between the synoviolin and the PGC-1β was firstly investigated. Specifically, in a usual binding assay using MBP-PGC-1β-His protein and GST-Syno ΔTM protein, LS-102 (PARMACOPIEA, Corporation) was added and these proteins were incubated for 12 hours. Then, these proteins were separated by SDS-PAGE of 12% gel concentration, and Western blot was performed. Anti-GST antibody diluted 2500 folds were used as a primary antibody, and anti-rat HRP diluted 10000 folds was used as a secondary antibody.
# In order to obtain a substance which inhibits the binding between synoviolin and PGC-1β, with respect to the substances shown in the following table 2 included in screening library relating to E3 ubiquitin ligase, in order to examine influence on the binding between synoviolin and PGC-1β, in vitro binding assays similar to the examples 3 to 6 were performed. The results were shown in FIGS. 11-1, 11-2, 11-3, and 11-4. In this example, 2 μg of PGC-1β (see FIG. 4) and 2 μg of GST-Syno ΔTM (see FIG. 6) were used.
# The binding assay was performed using the following assay system. 2 μg of MBP-PGC-1β His (1-367aa) and 2 μg of the modified synoviolin fused to GST were bound for 12 hours in a buffer (20 mM Tris-HCl pH 8.0, 100 mM NaCl, 1 mM EDTA. 0.1% NP-40, 5% glucose 1, and protease inhibitors) to detect PGC-1β using anti-PGC-1β antibody.
# PGC-1β [4] = assay: PGC-1β protein and mRNA level in skin fibroblasts from syno cKO mice (Western blot, real-time PCR); format: cell-based, mouse
# Description: Skin fibroblasts from syno CKO mice were cultivated in DMEM medium and treated by tamoxifen (Tam) or solvent (DMSO) for 48 hours. Cell extracts or total RNA were collected, each was used for western blot and real-time PCR, respectively.
# Further, in order to investigate whether […] was involved in synoviolin-mediated degradation of PGC-1β in cells, after the treatment by tamoxifen or solvent in the above experiment, 10 μM of MG-132, which is a proteasome inhibitor, was added and treated for two hours, and then, similar experiment was performed.
# [5] = tested on: PPRE ×3-TK-luc reporter (PGC-1β coactivator function); assay: Luciferase assay with PPRE ×3-TK-luc reporter in HEK-293 cells; format: cell-based
# Description: Specifically, control siRNA or Syno siRNA was temporarily transfected in HEK-293 cells. Reporter plasmid containing PPAR binding sites (PPRE ×3-TK-luc), CMV-β-gal expression construct, or siRNA was temporarily transfected in HEK-293 cells. After 16 hours, DMSO or Wy-14643 was treated for 6 hours, and then Luciferase assay was performed (FIG. 9B).
# After 16 hours from the transfection, cells were treated with solvent (DMSO) or Wy-14643 for 6 hours and the Luciferase assay was performed.
# The luciferase assay was performed similar to the example 9 except for using 5 μM of LS-102, 0.1 μM and 0.5 μM of 348, 0.1 μM and 5 μM of 349, and 5 μM of 351 and 355 instead of transfecting the Syno siRNA in the example 9. The same volume of DMSO, which is a solvent of each compound, was added as a control.
# [6] = molecular target: T2, PGC-1β ubiquitination by synoviolin (SYVN1) (Homo sapiens, UniProt Q86TM6); assay: in vitro ubiquitination of PGC-1β by synoviolin (Western blot); format: biochemical; details: for inhibiting activity of the PGC-1β ubiquitination, concentration dependency: 1 μM and 10 μM, FIG. 21; for polyubiquitination of PGC-1β: compared to control group (DMSO), FIG. 11-4
# T2 construct: MBP-Syno ΔTM-His means synoviolin in which transmembrane domain has been deleted; His tag (C)
# T2 sequence (Q86TM6 246-617 limits assumed): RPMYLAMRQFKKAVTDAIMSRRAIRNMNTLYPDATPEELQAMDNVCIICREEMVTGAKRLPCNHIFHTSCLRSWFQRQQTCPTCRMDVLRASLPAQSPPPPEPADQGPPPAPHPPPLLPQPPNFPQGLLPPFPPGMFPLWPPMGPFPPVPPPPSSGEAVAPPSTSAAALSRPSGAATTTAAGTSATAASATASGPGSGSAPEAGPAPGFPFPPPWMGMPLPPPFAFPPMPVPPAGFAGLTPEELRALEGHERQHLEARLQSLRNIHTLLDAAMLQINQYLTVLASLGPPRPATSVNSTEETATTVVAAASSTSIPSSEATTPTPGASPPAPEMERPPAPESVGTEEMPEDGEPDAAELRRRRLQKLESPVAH
# Description: The ubiquitin assay was performed using the following assay system. E1-His 125 ng, UbcH5C 150 ng, MBP-SYVN1 ΔTM-His 150 ng, GST-PGC-1β (1-367 aa; GST-P5), and HA-ubiquitin (HA-Ub) 750 ng were reacted at 30° C. for 2 hours in a buffer (50 mM Tris-HCL pH 7.5, 5 mM MgCl2, 0.6 mM DTT, and 2 mM ATP) to be ubiquitinated. Thereafter, the ubiquitinated proteins were bound to Glutathione Sepharose in GST washing buffer (50 mM Tris-HCl pH 7.5, 0.5 M NaCl, 1% Triton X, 1 mM EDTA, 1 mM DTT, and protease inhibitors). After washing with the GST washing buffer, ubiquitination of PGC-1β was detected by Western blotting using anti-PGC-1β antibody and anti-HA antibody.
# In order to examine the concentration dependency of the inhibiting activity of test substances 348 and 349 in PGC-1β ubiquitination by synoviolin (SYVN1), the in vitro binding assay was performed in the same manner as described in Example 11.
# [7] = tested on: mitochondria in HEK-293 cells; assay: electron microscope observation of mitochondria in treated cells; format: cell-based; details: 1 μM, observed after 72 hours, FIG. 13
# Description: The observation of mitochondria was performed similar to the example 9 except for observing after 72 hours from adding 1 μM of 348, 349, 351 and 355 to cells instead of transfecting the Syno siRNA in the example 9.
# synoviolin protein = molecular target: T3, synoviolin protein (Homo sapiens, UniProt Q86TM6); details: disclosed in JP 2008-74753 A; cited from earlier work
# T3 construct: MBP-Syno ΔTM-His means synoviolin in which transmembrane domain has been deleted; His tag (C)
# T3 sequence (Q86TM6 246-617 limits assumed): as above
# [8] = 2 μg PGC-1β and 2 μg GST-Syno ΔTM, FIGS. 11-1 to 11-4
smiles,measurement,setting,value
CCNCCN(CC)c1nc(Nc2ccc3ncoc3c2)nc(N[C@@H](C)C2CCCCC2)n1 [LS-102],number and volume density of mitochondria in the adipose tissue cells,[1],increases in number and volume density of mitochondria
same,protein level of the PGC-1β,PGC-1β [2]; LS-102 treated cells,doubled
same,expression of PGC-1β mRNA,PGC-1β [2]; LS-102 treatment,not changed
same,binding between synoviolin and PGC-1β,"[3]; MBP-PGC-1β-His and GST-Syno ΔTM, incubated 12 hours, FIG. 10",has an effect on inhibition of binding
CC(C)C[C@@H](C=O)NC(=O)[C@H](CC(C)C)NC(=O)[C@H](CC(C)C)NC(=O)OCc1ccccc1 [MG-132] (Cbz-Leu-Leu-Leu-aldehyde),protein level of PGC-1β,"PGC-1β [4]; 10 μM MG-132 for two hours, solvent-treated (DMSO-treated) skin fibroblasts",1.6 folds
same,"protein level of PGC-1β, additive effect of tamoxifen treatment and MG-132","PGC-1β [4]; 10 μM MG-132 for two hours, tamoxifen-treated skin fibroblasts",1.1 folds
CC/C(=C(\c1ccccc1)c1ccc(OCCN(C)C)cc1)c1ccccc1 [Tam],protein level of PGC-1β,"PGC-1β [4]; Tam treatment 48 hours (induces synoviolin knockout) vs DMSO, skin fibroblasts of syno cKO mice",1.4 folds
same,mRNA level of PGC-1β,"PGC-1β [4]; Tam treatment 48 hours, skin fibroblasts of syno cKO mice",no change
"Cc1cccc(Nc2cc(Cl)nc(SCC(=O)O)n2)c1C [Wy-1463, reference compound]",PPRE ×3-TK-luc reporter activity,"[5]; PPARα agonist treated for 6 hours vs DMSO, FIG. 9B",induced
O=C1C=CC(=O)c2c(O)ccc(O)c21 [compound 348],"inhibiting activity of the PGC-1β ubiquitination, concentration dependency",[6],in 10 μM is higher than that in 1 μM
same,polyubiquitination of PGC-1β,[6],suppressed
same,number and size of mitochondria,[7],proliferation (increase in the number) of mitochondria or increase in size of mitochondria has been observed
same,binding between synoviolin and PGC-1β,[3]; [8],inhibition of the binding
O=C1C=CC(=O)c2c(O)cccc21 [compound 349],"inhibiting activity of the PGC-1β ubiquitination, concentration dependency",[6],in 10 μM is higher than that in 1 μM
same,polyubiquitination of PGC-1β,[6],suppressed
same,number and size of mitochondria,[7],proliferation (increase in the number) of mitochondria or increase in size of mitochondria has been observed
same,binding between synoviolin and PGC-1β,[3]; [8],inhibition of the binding
CC1=CC(=O)c2ccccc2C1=O [compound 351],luciferase activity,"[5]; compounds instead of Syno siRNA (351: 5 μM), DMSO control, FIG. 12",lowered
same,binding between synoviolin and PGC-1β,[3]; [8],enhances the binding
O=C1CCC(=O)c2c(O)cccc21 [compound 355],number and size of mitochondria,[7],proliferation (increase in the number) of mitochondria or increase in size of mitochondria has been observed
same,binding between synoviolin and PGC-1β,[3]; [8],inhibition of the binding
O=C1C=CC(=O)c2c(Cl)ccc(O)c21 [compound 358],binding between synoviolin and PGC-1β,[3]; [8],inhibition of the binding
"CC1=CC(=O)c2c(O)cccc2C1=O [plumbagin, 2-methyl-5-hydroxy-1,4-naphthoquinone]",self-ubiquitination of synoviolin protein,synoviolin protein,inhibit self-ubiquitination of synoviolin protein
"O=c1c(O)c(-c2ccc(O)c(O)c2)oc2cc(O)cc(O)c12 [quercetin, 2-(3,4-dihydroxyphenyl)-3,5,7-trihydroxy-4H-1-benzopyrano-4-on, reference compound]",self-ubiquitination of synoviolin protein,synoviolin protein,inhibit self-ubiquitination of synoviolin protein
same,binding between synoviolin and PGC-1β,[3]; [8],inhibition of the binding
